This is an account of results in US20060159648A1, “Novel therapeutic method and compositions for topical administration” (priority 2003, published 2006).

One data set relates to fasting plasma glucose. The conditions noted are these: type II diabetes patients, cited from earlier work.
The nature of data set [1]: human pharmacokinetics after oral dosing (literature). The format is in vivo, humans. The conditions noted are these: for Z, target local free (unbound) concentration = peak plasma free drug concentration: peak plasma concentration*(100-PBF)/100. The source says: Z is expressed in units of ng/ml and is the target local free ( i.e. unbound) concentration that is expected to have a therapeutic effect against the skin condition. In the case of PPAR gamma agonists, Z should correspond to the peak plasma free drug concentration generated by dosing these drugs orally to treat effectively Type II diabetes mellitus. The appropriate value of Z may be determined experimentally in vivo by conventional known means using standard protocols.
C is expressed in units of ml/hr and is the rate of clearance of the drug substance. Clearance may be determined experimentally in vivo by conventional known means using standard tests. For example it can be determined from the plasma concentration in response to a defined input of drug using the equation given below: Clearance (ml/hr)=Input rate (ng/hr)/Total plasma concentration (ng/ml)

The conditions of data set [2]: cited from earlier work; for plasma bound fraction: value used in the flux equations; for Plasma protein binding: Product Information.
For data set [3] the following is noted: cited from earlier work; for clearance: in adults.

SMILES strings stand for the structures. Read-outs that look alike come from different tables or passages of the source.

On to `CN(CCOc1ccc(CC2SC(=O)NC2=O)cc1)c1ccccn1` (stereo not drawn) [rosiglitazone, 5-[4-[2-(N-methyl-N-(2-pyridyl)amino)ethoxy]benzyl]thiazolidine-2,4-dione], for which the “time to achieve a reduction of fasting plasma glucose by 2 mmol 1” value in the data set with fasting plasma glucose (2 mg b.i.d. dosage regimen) was “about 8 weeks”; in the data set with fasting plasma glucose (4 mg b.i.d. dosage regimen), “about 4 weeks”. For the same molecule, the “Z, target local free (unbound) concentration = peak plasma free drug concentration” value in data set [1] was found to be 1.7 ng/mL. In data set [2], the plasma bound fraction is recorded as 99.72%. Also, in data set [3] (8 mg dose), the Peak plasma concentration result was “about 600 ng/ml”. In addition, the clearance in data set [3] is 2780 mL/h.
Regarding `Cc1c(C)c2c(c(C)c1O)CCC(C)(COc1ccc(CC3SC(=O)NC3=O)cc1)O2` (stereo not drawn) [troglitazone, 5-[[4-[(3,4-dihydro-6-hydroxy-2,5,7,8-tetramethyl-2H-1-benzopyran-2-yl)methoxy]phenyl]methyl]-2,4-thiazolidinedione], the clearance in data set [1] (human, plasma, oral, in adults, from Clearance/Bioavailability and bioavailability with a meal) was 425 mL/min. Also, in data set [1], the “Z, target local free (unbound) concentration = peak plasma free drug concentration” value was determined as 7.5 ng/mL. Moreover, in data set [2], the Plasma protein binding was 99% and the plasma bound fraction was 99.5%. Also, in data set [3] (400 mg dose), the Peak plasma concentration result was “about 1500 ng/ml”. For the same molecule, in data set [3] (with a meal), the Bioavailability is roughly 85% and the Clearance/Bioavailability was 500 mL/min.
In the case of `CCc1ccc(CCOc2ccc(CC3SC(=O)NC3=O)cc2)nc1` (stereo not drawn) [pioglitazone, 5-[4-[2-(5-ethyl-2-pyridyl)ethoxy]benzyl]thiazolidine-2,4-dione], the “Z, target local free (unbound) concentration = peak plasma free drug concentration” value in data set [1] turned out to be 3.5 ng/mL. For the same molecule, in data set [2], the Plasma protein binding was greater than 99% and the plasma bound fraction is reported as 99.5%. Besides, the Peak plasma concentration entry in data set [3] (30 mg dose) is given as “about 700 ng/ml”. In addition, the clearance in data set [3] is 2400 mL/h.
